Measured values as given in patent US8546137B2, “Inhibition of dendritic cell-driven regulatory T cell activation and potentiation of tumor antigen-specific T cell responses by interleukin-15 and MAP kinase inhibitor” (The Board of Trustees of the University of Arkansas, priority 2007, dated 2013).

Legend:
[1] = test system: matriptase 170-204 peptide-specific CD4+ T cells; assay: Intracellular Th1 cytokine (TNFα, IFNγ) expression after challenge with peptide-loaded autologous LCL; format: cell-based, human
Protocol: (§1) Peripheral blood was drawn from healthy adult volunteer donors, following an IRB-approved protocol. PBMC were recovered by gradient centrifugation (Lymphoprep; Greiner Bio-One, Longwood, Fla.). For preparation of DC, PBMC were placed in 6 well plates (Costar, Cambridge, Mass.) at a concentration of 5×10^6/well in AIM-V medium. After incubation for 2-3 hours at 37° C., non-adherent cells were removed and the medium was replaced with AIM-V plus 800 U/ml GM-CSF and 500 U/ml IL-4. On days 3 and 5, half the medium was removed and replaced with AIM-V plus 800 U/ml GM-CSF and 500 U/ml IL-4. Maturation cytokines (1 μM/ml PGE2, 1000 U/ml TNFα, and 500 U/ml IL-1β) were added on day 5. Where indicated, IL-15 (100 ng/ml) was present throughout DC culture (i.e., from day 0, and supplemented on days 3 and 5). […]
(§2) Foxp3 expression was determined according to the manufacturer's staining protocol (eBioscience), using the provided fixation and permeabilization buffers. Intracellular cytokine expression was measured by flow cytometry after overnight co-culture of T cells with peptide-pulsed or control autologous LCL. […] Samples were analyzed with a FACSCalibur (Becton-Dickinson) and Cellquest or WinMDI software.

[2] = test system: matriptase 170-204 peptide-specific, DC-activated CD4+ T cells; assay: Foxp3 and GITR expression by flow cytometry, CD4+ T cells; format: cell-based, human
Protocol: (§3) Peripheral blood was drawn from healthy adult volunteer donors, following an IRB-approved protocol. PBMC were recovered by gradient centrifugation (Lymphoprep; Greiner Bio-One, Longwood, Fla.). For preparation of DC, PBMC were placed in 6 well plates (Costar, Cambridge, Mass.) at a concentration of 5×10^6/well in AIM-V medium. After incubation for 2-3 hours at 37° C., non-adherent cells were removed and the medium was replaced with AIM-V plus 800 U/ml GM-CSF and 500 U/ml IL-4. On days 3 and 5, half the medium was removed and replaced with AIM-V plus 800 U/ml GM-CSF and 500 U/ml IL-4. Maturation cytokines (1 μM/ml PGE2, 1000 U/ml TNFα, and 500 U/ml IL-1β) were added on day 5. Where indicated, IL-15 (100 ng/ml) was present throughout DC culture (i.e., from day 0, and supplemented on days 3 and 5). For stimulation of peptide-specific CD4^+ helper T cell and CD8^+ CTL responses, DC were loaded with 50 μg/ml of peptide on day 5 (at the time of addition of maturation cytokines) and the DC were harvested 2 days later. The DC were then washed once with AIM-V medium and used for T cell stimulation at a PBMC:DC ratio of 30:1. After 7 days, T cells were collected and restimulated with peptide-loaded DC. After the second stimulation, CD4^+ or CD8^+ T cells were recovered by positive selection with anti-CD4 or anti-CD8 magnetic beads (Dynabeads, Invitrogen), respectively, yielding populations of at least 95% purity. During the second and subsequent T cell passages (up to a maximum of six restimulations with peptide-loaded DC, at T cell:DC ratios of between 30:1 and 10:1), 20-100 U/ml IL-2 was added to the medium, and the cultures were periodically fed (every 2-3 days) by changing 50-70% of the medium and addition of fresh IL-2. Where indicated, T cell cultures were supplemented with 100 ng/ml IL-15, starting with the second passage.
Foxp3 expression was determined according to the manufacturer's staining protocol (eBioscience), using the provided fixation and permeabilization buffers. Intracellular cytokine expression was measured by flow cytometry after overnight co-culture of T cells with peptide-pulsed or control autologous LCL. T cells (1.5×10^6) were plated in 12 well Costar plates in 2 ml RPMI/10Hu. T cells were stimulated with phorbol myristyl acetate (50 ng/ml) and ionomycin (500 ng/ml) as a positive control. At the onset of co-culture, 10 μg/ml of Brefeldin A was added to block cytokine release. Cells were collected after overnight stimulation and fixed in 2% paraformaldehyde in PBS for 10 minutes at room temperature. The cells were washed once in PBS and again in 0.5% saponin and 1% BSA in PBS. […] Samples were analyzed with a FACSCalibur (Becton-Dickinson) and Cellquest or WinMDI software.

[3] = test system: matriptase 170-204 peptide-specific CD4+ T cells; assay: Treg assay: coculture of peptide-specific CD4+ T cells with autologous alloreactive CD4+ T cells (MLR, 3H-TdR); format: cell-based, human
Protocol: as §3
DC-activated, peptide-specific T cells were tested for Treg activity in 3 day microwell cocultures with autologous alloreactive CD4^+ T cells at a 1:1 ratio. The alloreactive CD4^+ T cells were stimulated with irradiated (7,500 cGy) allogeneic LCL at a 2:1 ratio. Transwell cocultures were conducted in 12-well Costar plates with 0.4 μm polycarbonate membrane inserts, at the same cell ratios as conventional microwell cocultures. Peptide-specific T cells were placed in the upper chamber, and alloreactive CD4^+ T cells plus irradiated allogeneic LCL were placed in the lower chamber. For all assays, proliferation of alloreactive CD4^+ T cells was determined by addition of 1 μCi/well ^3H-TdR for the last 16 hours of incubation. No exogenous cytokines were added to Treg coculture assays. Controls were included to correct for background proliferation of individual cell populations or spontaneous alloreactivity of peptide-specific T cells.

[4] = test system: matriptase 170-204 peptide-specific, DC-activated CD8+ T cells; assay: Foxp3 and GITR expression by flow cytometry, CD8+ T cells; format: cell-based, human
Protocol: as §3, with “During the second and subsequent T cell passages (up to a maximum of six restimulations with peptide-loaded DC, at T cell:DC ratios of between 30:1 and 10:1), 20-100 U/ml IL-2 was added to the medium, and the cultures were periodically fed (every 2-3 days) by changing 50-70% of the medium and addition of fresh IL-2. Where indicated, T cell cultures were supplemented with 100 ng/ml IL-15, starting with the second passage.” left out
as §2

[5] = test system: hepsin 48-84 peptide-specific CD4+ T cells; assay: TNFα expression by CD4+ T cells stimulated with treated DC; format: cell-based, human; conditions: DC treated throughout culture; IL-15 100 ng/ml, inhibitor 10 μM; relative to standard DC; T cells maintained with IL-2
Protocol: Foxp3 expression was determined according to the manufacturer's staining protocol (eBioscience), using the provided fixation and permeabilization buffers. Intracellular cytokine expression was measured by flow cytometry after overnight co-culture of T cells with peptide-pulsed or control autologous LCL. T cells (1.5×10^6) were plated in 12 well Costar plates in 2 ml RPMI/10Hu. T cells were stimulated with phorbol myristyl acetate (50 ng/ml) and ionomycin (500 ng/ml) as a positive control. At the onset of co-culture, 10 μg/ml of Brefeldin A was added to block cytokine release. Cells were collected after overnight stimulation and fixed in 2% paraformaldehyde in PBS for 10 minutes at room temperature. The cells were washed once in PBS and again in 0.5% saponin and 1% BSA in PBS. T cells were labeled with cytokine-specific PE or FITC-conjugated mAb for 30 minutes at room temperature. After staining, the cells were washed twice in 0.5% saponin and 1% BSA in PBS, once with 0.5% BSA in PBS, and fixed in 2% paraformaldehyde in PBS. Samples were analyzed with a FACSCalibur (Becton-Dickinson) and Cellquest or WinMDI software.
Treatment of DC with IL-15 and a p38 MAP kinase inhibitor enhances CD4^+ helper T cell TNFα expression in response to tumor antigen stimulation, and diminishes Treg foxp3 expression. […]

[6] = test system: peptide-loaded autologous LCL; assay: 51Cr-release cytotoxicity assay, CD8+ T cells against peptide-loaded autologous LCL; format: cell-based, human
Protocol: as §3, with “After the second stimulation, CD4^+ or CD8^+ T cells were recovered by positive selection with anti-CD4 or anti-CD8 magnetic beads (Dynabeads, Invitrogen), respectively, yielding populations of at least 95% purity. During the second and subsequent T cell passages (up to a maximum of six restimulations with peptide-loaded DC, at T cell:DC ratios of between 30:1 and 10:1), 20-100 U/ml IL-2 was added to the medium, and the cultures were periodically fed (every 2-3 days) by changing 50-70% of the medium and addition of fresh IL-2. Where indicated, T cell cultures were supplemented with 100 ng/ml IL-15, starting with the second passage.” left out
(§4) Standard ^51Cr-release assays were performed as described (24). […] The percentage of target cell lysis was calculated as described (24).

[7] = test system: tumor antigen-specific CD4+ T cells; assay: PD-1 expression by CD4+ T cells stimulated with treated DC; format: cell-based, human; conditions: treatment of DC
Protocol: (§5) Treatment of DC with IL-15 and a p38 MAP kinase inhibitor enhances CD4^+ helper T cell TNFα expression in response to tumor antigen stimulation, and diminishes Treg foxp3 expression. DC were treated with IL-15 (100 ng/ml) and/or a p38 MAP kinase inhibitor (10 μM p38 MAP kinase inhibitor III, from Calbiochem, La Jolla, Calif.) throughout their culture (i.e., from day 0 through completion of DC maturation on day 7). DC were loaded with the hepsin 48-84 peptide antigen on day 5 (i.e., at the time of addition of maturation cytokines).

[8] = test system: peptide-loaded autologous LCL; assay: 51Cr-release cytotoxicity assay, CD4+ T cells against peptide-loaded autologous LCL; format: cell-based, human
Protocol: as §3, with “After the second stimulation, CD4^+ or CD8^+ T cells were recovered by positive selection with anti-CD4 or anti-CD8 magnetic beads (Dynabeads, Invitrogen), respectively, yielding populations of at least 95% purity. During the second and subsequent T cell passages (up to a maximum of six restimulations with peptide-loaded DC, at T cell:DC ratios of between 30:1 and 10:1), 20-100 U/ml IL-2 was added to the medium, and the cultures were periodically fed (every 2-3 days) by changing 50-70% of the medium and addition of fresh IL-2. Where indicated, T cell cultures were supplemented with 100 ng/ml IL-15, starting with the second passage.” left out
as §4

[9] = test system: tumor antigen-specific CD4+ T cells; assay: CCR4 and CXCR4 expression by CD4+ T cells stimulated with treated DC; format: cell-based, human; conditions: treatment of DC
Protocol: as §5

[10] = test system: matriptase 170-204 peptide-specific CD8+ T cells; assay: Treg assay: coculture of peptide-specific CD8+ T cells with autologous alloreactive CD4+ T cells (MLR, 3H-TdR); format: cell-based, human
Protocol: as §1, with “5). For stimulation of peptide-specific CD4^+ helper T cell and CD8^+ CTL responses, DC were loaded with 50 μg/ml of peptide on day 5 (at the time of addition of maturation cytokines) and the DC were harvested 2 days later.” for “5).”
DC-activated, peptide-specific T cells were tested for Treg activity in 3 day microwell cocultures with autologous alloreactive CD4^+ T cells at a 1:1 ratio. […] For all assays, proliferation of alloreactive CD4^+ T cells was determined by addition of 1 μCi/well ^3H-TdR for the last 16 hours of incubation. […]

[11] = test system: CD25 preferentially expressed by CD4+ Treg; conditions: patients with renal cell carcinoma, combined with tumor RNA-transfected DC vaccination; cited from earlier work
[12] = IL-15 added to CD4+ T cell cultures activated with conventional DC
[13] = conventional DC or IL-15-treated DC, T cells maintained with IL-2 plus IL-15

IL-15: interleukin-15, cytokine from R & D Systems, used at 100 ng/ml in DC and/or T cell culture
antigen-driven cytokine responses (TNFα, IFNγ) of CD4+ T cells ([1]; combined IL-15 treatment of both DC and CD4+ T cells): synergistic gain | frequency of CD4+ T cells expressing TNFα and IFNγ ([1]; treatment of DC with IL-15 or treatment of CD4+ T cells with IL-15): small increment | Foxp3 expression by CD4+ T cells [2, 12]: did not result in a significant change | frequency of GITR+ CD4+ T cells (total) [2, 12]: 8% | Foxp3 expression, proportion of CD4+ T cells ([2]; activated with IL-15-treated DC (100 ng/ml), maintained with IL-2, conventionally activated cells 33%): 20% | frequency of Foxp3+ and GITR+ CD4+ T cells ([2]; activated with IL-15 treated DC and maintained with IL-2 plus IL-15): markedly enhanced | restoration of the mixed lymphocyte reaction (CD4+ Treg activity) ([3]; IL-15-treated DC, or IL-15 treatment of CD4+ T cells activated with conventional DC): significant restoration | inhibition of the mixed lymphocyte reaction by peptide-specific CD4+ T cells (Treg activity) ([3]; T cells cultured with IL-15, or activated by DC cultured with IL-15, or both (bars B, C, D), conventional about 90%): less than 60% | restoration of the mixed lymphocyte reaction (CD4+ Treg activity) ([3]; both DC and CD4+ T cells treated with IL-15): further enhancement of alloreactivity | restoration of the mixed lymphocyte reaction (CD4+ Treg activity) ([3]; peptide-specific CD4+ T cells irradiated before coculture, IL-15 on DC, T cells or both): almost total restoration of the MLR | Foxp3 expression, proportion of CD8+ T cells ([4]; activated with IL-15-treated DC, maintained with IL-2): 37% | GITR expression by CD8+ T cells [4, 13]: did not show increased GITR expression | frequency of Foxp3+ CD8+ T cells [4, 13]: elevated frequencies | CD4+ T cell TNFα expression upon tumor antigen stimulation [5]: did not significantly increase | gain in lysis, CD8+ T cell cytotoxicity ([6]; IL-15 treatment of DC or CD8+ T cells): lower than observed for CD4^+ T cell responses | CD8+ T cell cytotoxicity against peptide-loaded LCL ([6]; combined treatment of both DC and CD8+ T cells with IL-15): strong synergistic increase | PD-1 expression by tumor antigen-specific CD4+ helper T cells [7]: markedly reduces | CD4+ T cell lysis of peptide-loaded LCL ([8]; IL-15-treated DC followed by culture with IL-2 plus IL-15, additive): further gain in lysis | CD4+ T cell cytotoxicity ([8]; IL-15 treatment of DC or CD4+ T cells): marked enhancement | CD4+ T cell expression of CCR4 [9]: slightly inhibited | CD4+ T cell expression of CXCR4 [9]: enhances | CD8+ Treg activity ([10]; IL-15 treatment of DC alone): particularly effective in diminishing | CD8+ regulatory function ([10]; IL-15 treatment of DC, of CD8+ T cells, or both): markedly diminished

p38 MAP kinase inhibitor III [reference compound]
CD4+ T cell TNFα expression upon tumor antigen stimulation [5]: did not significantly increase | PD-1 expression by tumor antigen-specific CD4+ helper T cells [7]: markedly reduces | CD4+ T cell expression of CCR4 [9]: markedly enhanced | CD4+ T cell expression of CXCR4 [9]: inhibited

denileukin diftitox
Treg in the peripheral blood [11]: reduced numbers of Treg | generation of tumor-specific T cell responses [11]: enhanced generation of tumor-specific T cell responses
